Values joined by “and” are separate entries in the source; they are usually repeats but may differ in a detail not shown here. Equal entries are not always repeated. Inconclusive results and toxic doses are left out. Rule for the calls: active = survival T/C of 150% or more; inactive = T/C below 125% in these data.
Test system: BDF1 mice, P388 leukemia ip, median survival T/C
Experiment: NCI In Vivo Anticancer Drug Screen. Data for tumor model P388 Leukemia (intraperitoneal) in B6D2F1 (BDF1) mice
Details: endpoint: median survival time, higher = longer survival
How it was run: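 Steps: implant the tumour, treat one group with compound and another with vehicle, record survival, then divide treated by control.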

[1] = dose: 100.0 mg/kg/injection, schedule: Q01DX009 (ip), vehicle: Klucel (hydroxypropylcellulose) (HPC)
[2] = dose: 50.0 mg/kg/injection, schedule: Q01DX009 (ip), vehicle: saline with Tween-80
[3] = dose: 100.0 mg/kg/injection, schedule: Q01DX009 (ip), vehicle: saline with Tween-80
[4] = dose: 200.0 mg/kg/injection, schedule: Q01DX009 (ip), vehicle: saline with Tween-80
[5] = dose: 12.5 mg/kg/injection, schedule: Q01DX009 (ip), vehicle: saline
[6] = dose: 400.0 mg/kg/injection, schedule: Q01DX009 (ip), vehicle: saline with Tween-80
[7] = dose: 12.5 mg/kg/injection, schedule: Q01DX009 (ip), vehicle: Klucel (hydroxypropylcellulose) (HPC)
[8] = dose: 25.0 mg/kg/injection, schedule: Q01DX009 (ip), vehicle: Klucel (hydroxypropylcellulose) (HPC)
[9] = dose: 50.0 mg/kg/injection, schedule: Q01DX009 (ip), vehicle: Klucel (hydroxypropylcellulose) (HPC)
[10] = dose: 100.0 mg/kg/injection, schedule: Q04DX003 (ip), vehicle: saline
[11] = dose: 200.0 mg/kg/injection, schedule: Q04DX003 (ip), vehicle: saline
[12] = dose: 400.0 mg/kg/injection, schedule: Q04DX003 (ip), vehicle: saline
[13] = dose: 100.0 mg/kg/injection, schedule: Q04DX003 (ip), vehicle: Klucel (hydroxypropylcellulose) (HPC)
[14] = dose: 100.0 mg/kg/injection, schedule: Q04DX003 (ip), vehicle: saline with Tween-80
[15] = dose: 200.0 mg/kg/injection, schedule: Q04DX003 (ip), vehicle: saline with Tween-80

Measured: T/C

Cc1ccc2c(Br)cc(Br)c(O)c2n1
inactive: dose: 10.0 mg/kg/injection, schedule: Q01DX009 (ip), vehicle: Klucel (hydroxypropylcellulose) (HPC) 115 % of control | dose: 20.0 mg/kg/injection, schedule: Q01DX009 (ip), vehicle: Klucel (hydroxypropylcellulose) (HPC) 115 % of control | dose: 40.0 mg/kg/injection, schedule: Q01DX009 (ip), vehicle: Klucel (hydroxypropylcellulose) (HPC) 115 % of control | [1] 100 % of control

COc1cccc(CCC(=O)O)c1OC
inactive: dose: 25.0 mg/kg/injection, schedule: Q04DX003 (ip), vehicle: water 109 % of control | dose: 50.0 mg/kg/injection, schedule: Q04DX003 (ip), vehicle: water 101 % of control | dose: 100.0 mg/kg/injection, schedule: Q04DX003 (ip), vehicle: water 111 % of control | dose: 200.0 mg/kg/injection, schedule: Q04DX003 (ip), vehicle: water 103 % of control | dose: 400.0 mg/kg/injection, schedule: Q04DX003 (ip), vehicle: water 94 % of control

O=C[C@@H](CO)O[C@H](C=O)n1cnc2c(=O)[nH]cnc21
active: dose: 108.0 mg/kg/injection, schedule: Q04DX003 (ip), vehicle: water 170 % of control | dose: 180.0 mg/kg/injection, schedule: Q04DX003 (ip), vehicle: water 179 % of control and 184 % of control | dose: 300.0 mg/kg/injection, schedule: Q04DX003 (ip), vehicle: water 227 % of control and 247 % of control

O=C(NC(=O)c1c(F)cccc1F)Nc1ncc(Cl)cc1Cl
inactive: [2] 90 % of control | [3] 100 % of control | [4] 90 % of control

OC(CC1CCCCN1)c1cc(C(F)(F)F)nc2c(C(F)(F)F)cccc12 (configuration not stated)
inactive: [2] 111 % of control

CS(=O)(=O)CC(O)(c1ccc(Cl)cc1)c1ccccn1 (configuration not stated)
inactive: [2] 91 % of control | [3] 91 % of control | [4] 97 % of control

Cc1cccnc1NC(=O)/C=C/C(=O)O
inactive: dose: 3.12 mg/kg/injection, schedule: Q01DX001 (ip), vehicle: saline 100 % of control | dose: 6.25 mg/kg/injection, schedule: Q01DX001 (ip), vehicle: saline 100 % of control | dose: 12.5 mg/kg/injection, schedule: Q01DX001 (ip), vehicle: saline 100 % of control | [5] 95 % of control | dose: 12.5 mg/kg/injection, schedule: Q04DX003 (ip), vehicle: saline 100 % of control | dose: 18.0 mg/kg/injection, schedule: Q01DX001 (ip), vehicle: saline 109 % of control | dose: 25.0 mg/kg/injection, schedule: Q01DX009 (ip), vehicle: saline 100 % of control | dose: 28.0 mg/kg/injection, schedule: Q01DX001 (ip), vehicle: saline 100 % of control | dose: 40.0 mg/kg/injection, schedule: Q01DX001 (ip), vehicle: saline 104 % of control

C=CCCCCCCCCC(=O)NCc1nc2ccccc2[nH]1
inactive: [3] 100 % of control | [4] 109 % of control | [6] 95 % of control

CCOC(=O)CCN(CC1CC=CCC1)c1cc(O)c2c(c1O)C(=O)c1ccccc1C2=O (configuration not stated)
inactive: dose: 50.0 mg/kg/injection, schedule: Q01DX005 (ip), vehicle: saline with Tween-80 94 % of control | dose: 100.0 mg/kg/injection, schedule: Q01DX005 (ip), vehicle: saline with Tween-80 89 % of control | dose: 200.0 mg/kg/injection, schedule: Q01DX005 (ip), vehicle: saline with Tween-80 90 % of control

CN1CCN(CCCN2c3ccccc3Sc3ccc(Cl)cc32)CC1
inactive: dose: 6.25 mg/kg/injection, schedule: Q01DX009 (ip), vehicle: saline 113 % of control | [5] 109 % of control

NNC(=O)c1c[nH]c2ccccc2c1=O
inactive: [7] 104 % of control | [8] 104 % of control | [9] 91 % of control | dose: 75.0 mg/kg/injection, schedule: Q01DX009 (ip), vehicle: Klucel (hydroxypropylcellulose) (HPC) 108 % of control | dose: 115.0 mg/kg/injection, schedule: Q01DX009 (ip), vehicle: Klucel (hydroxypropylcellulose) (HPC) 91 % of control | dose: 170.0 mg/kg/injection, schedule: Q01DX009 (ip), vehicle: Klucel (hydroxypropylcellulose) (HPC) 95 % of control

N#Cc1cnn2c(=O)[nH]cnc12
inactive: dose: 50.0 mg/kg/injection, schedule: Q01DX009 (ip), vehicle: other 100 % of control | dose: 100.0 mg/kg/injection, schedule: Q01DX009 (ip), vehicle: other 100 % of control | [10] 100 % of control | dose: 200.0 mg/kg/injection, schedule: Q01DX009 (ip), vehicle: other 100 % of control | [11] 100 % of control | [12] 118 % of control

CC(=O)O[C@H]1CC[C@H]2[C@@H]3CC[C@H]4C[C@@H]5[C@H](C[C@]4(C)[C@H]3CC[C@]12C)C5(F)F
inactive: dose: 3.12 mg/kg/injection, schedule: Q04DX003 (ip), vehicle: Klucel (hydroxypropylcellulose) (HPC) 100 % of control | dose: 6.25 mg/kg/injection, schedule: Q01DX009 (ip), vehicle: Klucel (hydroxypropylcellulose) (HPC) 88 % of control | dose: 6.25 mg/kg/injection, schedule: Q04DX003 (ip), vehicle: Klucel (hydroxypropylcellulose) (HPC) 100 % of control | [7] 92 % of control | dose: 12.5 mg/kg/injection, schedule: Q04DX003 (ip), vehicle: Klucel (hydroxypropylcellulose) (HPC) 100 % of control | [8] 100 % of control | [13] 100 % of control

c1cnc2sccc2c1
inactive: [14] 100 % of control | [15] 109 % of control

CCOc1ncc([N+](=O)[O-])c(OCC)n1
inactive: [2] 101 % of control | [3] 106 % of control | [4] 108 % of control | [6] 106 % of control

CN1COC(OC2CSC2)C(C)(C)C1 (configuration not stated)
inactive: [14] 117 % of control | [15] 114 % of control | dose: 400.0 mg/kg/injection, schedule: Q04DX003 (ip), vehicle: saline with Tween-80 115 % of control

COc1cc2cc(-c3cc(OC)c(OC)c(OC)c3)c3c(c2cc1OC)CNC3=O
inactive: dose: 100.0 mg/kg/injection, schedule: Q01DX009 (ip), vehicle: saline 110 % of control | [10] 101 % of control | dose: 200.0 mg/kg/injection, schedule: Q01DX009 (ip), vehicle: saline 112 % of control | [11] 108 % of control | dose: 400.0 mg/kg/injection, schedule: Q01DX009 (ip), vehicle: saline 91 % of control | [12] 100 % of control

CCOC(=O)c1cc(/C=C/c2ccccc2)[nH]c(=O)c1C#N
inactive: [8] 91 % of control | [9] 91 % of control | [1] 95 % of control | [13] 95 % of control | dose: 200.0 mg/kg/injection, schedule: Q01DX009 (ip), vehicle: Klucel (hydroxypropylcellulose) (HPC) 92 % of control | dose: 200.0 mg/kg/injection, schedule: Q04DX003 (ip), vehicle: Klucel (hydroxypropylcellulose) (HPC) 104 % of control | dose: 400.0 mg/kg/injection, schedule: Q04DX003 (ip), vehicle: Klucel (hydroxypropylcellulose) (HPC) 104 % of control

Reference: PubChem BioAssay AID328 (DTP/NCI, 2004)
